Assays:
Type in all cases: in vivo
[1] = system: Cowpea Aphid (aphis craccivora); assay: Cowpea aphid spray test on potted cowpea plants; conditions: for mortality at 300 ppm: Aphis craccivora, cowpea aphid on potted cowpea plants, sprayed, assessed after 24, 72 and 120 hours, read-out: mortality in comparison with untreated controls; for activity in [%]: Cow pea aphid, 300 ppm, scale 0% no biological activity to 100% total control
Procedure: (§1) Under general conditions, if not otherwise specified, most test solutions are prepared as follow: The active compound is dissolved at the desired concentration in a mixture of 1:1 (vol:vol) distilled water:acetone. The test solution is prepared at the day of use.
(§2) Test solutions are prepared in general at concentrations of 1000 ppm, 500 ppm, 300 ppm, 100 ppm and 30 ppm (wt/vol).
B.1 Cowpea Aphid (aphis craccivora)
Potted cowpea plants colonized with approximately 100-150 aphids of various stages were sprayed after the pest population has been recorded. Population reduction was assessed after 24, 72, and 120 hours.

[2] = system: Spider Mite (Tetranychus spp.); assay: Spider mite contact/oral activity on potted cotton plants; conditions: for activity in [%]: Spider mite, 300 ppm, scale 0% no biological activity to 100% total control; for mortality at 300 ppm: Tetranychus, po, spider mites on potted cotton plants, sprayed, assessed after 24, 72 and 120 hours, read-out: mortality in comparison with untreated controls
Procedure: as §1, §2
B.2 Spider Mite (Tetranychus spp.)
Potted cotton plants colonized with approximately 50 mites of various stages are sprayed after the pest population has been recorded. Population reduction (or increase) after 24, 72, and 120 hours is assessed.

[3] = system: Rice Brown Plant Hopper (Nilaparvata lugens); assay: Rice brown plant hopper test on sprayed rice seedlings; conditions: for activity in [%]: Nilaparvata lugens, 300 ppm, scale 0% no biological activity to 100% total control; for mortality at 300 ppm: Nilaparvata lugens adults on sprayed rice seedlings, 72 hours, read-out: mortality in comparison with untreated controls
Procedure: B.3 Rice Brown Plant Hopper (Nilaparvata lugens)
Rice seedlings were cleaned and washed 24 hours before spraying. The active compounds were formulated in 50:50 acetone:water (vol:vol) and 0.1% vol/vol surfactant (EL 620) was added. Potted rice seedlings were sprayed with 5 ml test solution, air dried, placed in cages and inoculated with 10 adults. Treated rice plants were kept at about 28-29° C. and relative humidity of about 50-60%. Percent mortality was recorded after 72 hours.

[4] = system: Yellow Fever Mosquito (Aedes aegypti) neonate larvae; assay: Yellow fever mosquito larval motility assay in microtiter plates
Procedure: B.4. Activity Against Yellow Fever Mosquito (Aedes aegypti)
The compounds were formulated in 100% DMSO and were tested in microtiter plates containing 180 ul 1× Luria Broth media and 10 neonate A. aegypti larvae. The efficacy of a compound was determined based on the motility of the larvae as compared to average motility of control wells containing DMSO only. Compounds with >80% reduction in motility at a concentration of 10 ppm were tested in a dose response assay to determine EC50 values.

[5] = system: Ctenocephalides felis fleas; assay: Rat ectoparasiticide model (flea infestation, topical treatment); conditions: for Efficacy in [%]: Ctenocephalides felis on rats; for reduction of flea counts (% efficacy): rats, topical, 48 hours post-treatment, average, n=2 replicas
Procedure: B.5. Activity in Rat Ectoparasiticide Model
Rats were infested with 50 Ctenocephalides felis fleas. Approximately twenty four hours later rats (3 per group) were treated topically with test compounds at doses of 20 mg/kg or 10 mg/kg body weight. Placebo (vehicle) and positive control groups were included in each study. Forty eight hours post-treatment, fleas were collected from each rat using a flea comb. The percent efficacy per treatment group was calculated using the following formula: % efficacy=100×(C−T)/C
where C is the geometric mean of live fleas recovered in the placebo group and T is the geometric mean of live fleas recovered in the respective treatment group.

SMILES | mortality at 300 ppm [1] [%] | activity in [%] [1] [%] | activity in [%] [2] [%] | activity in [%] [3] [%] | further results
FC(F)(F)Sc1ccc(CNc2ncnc3scc(Cl)c23)cc1 [C.1] | > 80 | – | – | – | –
CC(Nc1ncnc2scc(Cl)c12)c1ccc(SC(F)F)cc1 (centres unmarked) [C.2] | > 80 | – | – | – | –
C[C@@H](Nc1ncnc2scc(Cl)c12)c1ccc(SC(F)(F)F)cc1 [C.3-R] | – | 0 | 0 | 0 | –
C[C@H](Nc1ncnc2scc(Cl)c12)c1ccc(SC(F)(F)F)cc1 [C.3-S, (5-Chloro-thieno[2,3-d]pyrimidin-4-yl)-[(S)-1-(4-trifluoromethylsulfanyl-phenyl)-ethyl]-amine] | – | 100 | 90 | 100 | EC50 (section headed 'Activity at 1 [ppm]') [4]: 0.21 ppm; Efficacy in [%] ([5]; dosage 10 mg/kg): 71%; Efficacy in [%] ([5]; dosage 20 mg/kg): 89%; reduction of flea counts (% efficacy) ([5]; 10 mg/kg): 71%; reduction of flea counts (% efficacy) ([5]; 20 mg/kg): 89%
CC(Nc1ncnc2scc(Cl)c12)c1ccc(SC(F)(F)F)cc1 (centres unmarked) [C.3] | > 80 | 100 | 90 | 100 | mortality at 300 ppm [2]: > 80%; mortality at 300 ppm [3]: > 80%; EC50 (section headed 'Activity at 1 [ppm]') [4]: 0.29 ppm
CC(Nc1ncnc2scc(Cl)c12)c1ccc([S+]([O-])C(F)(F)F)cc1 (centres unmarked) [C.4] | > 80 | – | – | – | –
CC(Nc1ncnc2scc(Cl)c12)c1ccc(SCC(F)(F)F)cc1 (centres unmarked) [C.5] | > 80 | – | – | – | –
CC(Nc1ncnc2scc(Cl)c12)c1ccc(SC(F)(F)C(F)(F)F)cc1 (centres unmarked) [C.6] | > 80 | – | – | – | mortality at 300 ppm [2]: > 80%; mortality at 300 ppm [3]: > 80%
CSc1ccc(C(C)Nc2ncnc3scc(Cl)c23)cc1 (centres unmarked) [CE.1, reference compound] | – | – | – | 0 | –
C[C@H](Nc1ncnc2scc(Cl)c12)c1ccc(OC(F)(F)F)cc1 [CE.2, reference compound] | – | – | 50 | – | Efficacy in [%] ([5]; dosage 10 mg/kg): 70%; Efficacy in [%] ([5]; dosage 20 mg/kg): 82%
